According to the OPERA property sets (Mansouri et al. 2018):

Settings: for log10 BCF / log10 biotransformation half-life (days): fish

| SMILES | boiling point | melting point | further results |
| --- | --- | --- | --- |
| CCC(C)CCC(C)(O)CC (stereo not drawn) | 202 °C | -67.5 °C | – |
| CNc1ccccc1C | 208 °C | – | ready biodegradability: not readily biodegradable; log10 BCF: 0.95; log10 biotransformation half-life (days): -0.74 |
| Clc1cc(Cl)c(Cl)c(Oc2ccccc2)c1 | – | – | log10 vapour pressure (mmHg): -3.66 |
| CCc1cccc(CC)c1 | 181 °C | -83.9 °C | log10 biodegradation half-life (days): 0.845; log10 vapour pressure (mmHg): 0.0531; ready biodegradability: not readily biodegradable; log10 BCF: 2.73; log10 biotransformation half-life (days): 0.09 |
| CC(=O)O[C@]1(C(C)=O)CC[C@H]2[C@@H]3CCC4=CC(=O)CC[C@]4(C)[C@@]3(F)[C@@H](O)C[C@@]21C | – | 268 °C | – |
| FCC(F)F | 5 °C | -84 °C | – |
| CCCCCCCCCC(=O)Cl | – | -34.5 °C | – |
| Clc1ccc(Oc2ccccc2Cl)c(Cl)c1 | – | – | log10 vapour pressure (mmHg): -3.73 |
| CC1=CC(=O)CCC1 | 201 °C | -21 °C | – |
| CCCCC(CC)COC(C)=O (stereo not drawn) | 199 °C | -80 °C | log10 vapour pressure (mmHg): -0.638 |
| Nc1ccncn1 | – | 155 °C | – |
| CCC(=O)Nc1ccccc1 | 222 °C | 106 °C | ready biodegradability: not readily biodegradable |
| CCCCCCCCC=CCCCCCCCC(=O)OCC(O)C1OCC(O)C1O (stereo not drawn) | – | – | ready biodegradability: readily biodegradable |
| CC(C)(C)OOC(=O)c1ccccc1 | – | 8 °C | ready biodegradability: not readily biodegradable |
| CCN(C)C(=O)COC(=O)c1ccccc1 | – | 20 °C | – |
| CC(C)CSCC(C)C | 171 °C | -106 °C | – |
| CC(=O)CC(=O)Nc1ccccc1 | – | 86 °C | log10 vapour pressure (mmHg): -4.28; ready biodegradability: readily biodegradable |
| CC1=C(/C=C/C(C)=C/C=C/C(C)=C/C=C/C=C(C)/C=C/C=C(C)/C=C/C2=C(C)C(=O)C(O)CC2(C)C)C(C)(C)CC(O)C1=O (stereo not drawn) | – | 182 °C | – |
| CCC1(C2=CCCCC2)C(=O)NC(=O)NC1=O | – | 173 °C | – |
| Cc1ccc(O)c(Cl)c1C | 188 °C | 27 °C | – |
| CCC(C(N)=O)n1nnc2ccccc21 (stereo not drawn) | – | 143 °C | – |
| CCC(C)(C)CC | 86 °C | -135 °C | log10 biodegradation half-life (days): 0.954; log10 vapour pressure (mmHg): 1.92 |

| SMILES | boiling point | melting point | further results |
| --- | --- | --- | --- |
| COc1cc2c(c(OC)c1OC)-c1ccc(O)c(=O)cc1[C@@H](NC(C)=O)CC2 | – | 178 °C | – |
| N#Cc1cccc(N)c1 | 289 °C | 54.3 °C | – |
| CN(C)CC(O)CN(C)C | 182 °C | – | – |
| O=C(O)c1ccc(O)c(O)c1O | – | 221 °C | – |
| COC(=O)c1cccc(O)c1 | 281 °C | 73 °C | – |
| CC(C)CC(=O)OCC(COC(=O)CC(C)C)OC(=O)CC(C)C | 332 °C | – | – |
| CCCCCCCC/C=C\CCCCCCCC(=O)OCCCC | – | -26.5 °C | – |
| CS(=O)(=O)O | – | 20 °C | log10 vapour pressure (mmHg): -3.37; ready biodegradability: readily biodegradable |
| CC1CCC(O)CC1C (stereo not drawn) | 189 °C | – | – |
| Cc1cc(N)ncn1 | – | 197 °C | – |
| CC(C)(Oc1ccc(Cl)cc1)C(=O)O | – | 118 °C | – |
| Oc1ccc(C2CCCC2)cc1 | – | 65 °C | – |
| Cc1ccc(O)cc1[N+](=O)[O-] | – | – | ready biodegradability: not readily biodegradable; log10 BCF: 1; log10 biotransformation half-life (days): -0.8 |
| COc1c(OC)c(OC(C)=O)c2ccccc2c1OC(C)=O | – | 138 °C | – |
| O=[N+]([O-])CCl | 122 °C | – | – |
| CCCCC(=O)c1ccc(C)cc1 | 256 °C | -2 °C | – |
| CCC(C)CCC(C)CC (stereo not drawn) | 161 °C | – | – |
| N#CCCCC#N | 286 °C | -29 °C | log10 vapour pressure (mmHg): -2.08 |
| O=C(O)c1cc(-c2ccc(F)cc2F)ccc1O | – | 216 °C | – |
| O=C(O)CNC(=S)C(=S)NCC(=O)O | – | 220 °C | – |
| CC(C)COC(=O)CCCCC(=O)OCC(C)C | 279 °C | -20 °C | – |
| CC(C)OC(=O)C(O)(c1ccc(Cl)cc1)c1ccc(Cl)cc1 | – | 73 °C | log10 vapour pressure (mmHg): -6.74 |

| SMILES | boiling point | melting point | further results |
| --- | --- | --- | --- |
| O=Cc1ccc([N+](=O)[O-])cc1 | – | 107 °C | – |
| Cc1occc1C(=O)Nc1ccccc1 | – | 110 °C | log10 Koc (L/kg): 2.48; log10 vapour pressure (mmHg): -6.82 |
| CCCCCCCC/C=C\CCCCCCCCN | – | 246 °C | – |
| COC1CC1 | 44.7 °C | -119 °C | – |
| CCOC(=O)CS | 157 °C | – | – |
| Cc1cc(O)cc(O)c1 | 290 °C | 108 °C | ready biodegradability: not readily biodegradable |
| CC1(C)CC(N)CC(C)(CN)C1 (stereo not drawn) | 247 °C | 10 °C | log10 vapour pressure (mmHg): -1.82; ready biodegradability: not readily biodegradable |
| O=C1CN(/N=C/c2ccc([N+](=O)[O-])o2)C(=O)N1CN1CCOCC1 | – | 206 °C | – |
| CCCCNC(=O)c1ccc(Cl)cc1O | – | 91.5 °C | – |
| CCOC(=O)CC(=O)CC(=O)OCC | 250 °C | – | – |
| c1ccc2sncc2c1 | 220 °C | 38 °C | – |
| O=C(O)c1ccc(C(=O)O)o1 | – | 342 °C | – |
| COCC(F)(F)C(F)C(F)(F)F (stereo not drawn) | 87.5 °C | – | log10 vapour pressure (mmHg): 1.79 |
| CC(C)OC(=O)C1(S(=O)(=O)c2ccc(Cl)cc2)CCCC1 | – | 92.5 °C | – |
| CC1=C(/C=C/C(C)=C/C=C/C(C)=C/C=C/C=C(C)/C=C/C=C(C)/C=C/C2=C(C)C(=O)CCC2(C)C)C(C)(C)CCC1 | – | 179 °C | – |
| Clc1cc2ccc(Cl)c(Cl)c2cc1Cl | – | – | log10 Koa: 8.34 |
| Cc1n[nH]c(=O)[nH]c1=O | – | 211 °C | – |
| CCc1ccccc1-c1ccccc1 | 266 °C | -6 °C | – |
| C[Si](Cl)(Cl)C(Cl)Cl | 149 °C | – | – |
| CC=CC=CC(=O)OCC | 196 °C | – | – |
| COc1cc2c(cc1OC)C(=O)NCC2 | – | 175 °C | – |
| CC(C)(C)NCCNC(C)(C)C | 197 °C | – | log10 vapour pressure (mmHg): -0.575 |

| SMILES | boiling point | melting point | further results |
| --- | --- | --- | --- |
| CCN(CC)CCOC(=O)C(O)(c1ccccc1)c1ccccc1.Cl | – | 178 °C | – |
| SCc1ccc(Cl)cc1 | – | 19.5 °C | – |
| CCCC(C)(CO)CO | 234 °C | 62.5 °C | – |
| CN1C(=O)CN=C(c2ccccc2)c2cc([N+](=O)[O-])ccc21 | – | 82 °C | – |
| CCC(S)CC | 105 °C | -111 °C | – |
| O=C[O-].[Na+] | – | 253 °C | – |
| C=C(C)CC(C)(C)C | 101 °C | -93.5 °C | log10 vapour pressure (mmHg): 1.65; log10 BCF: 2.78; log10 biotransformation half-life (days): 0.12 |
| CCCCCCCCCCCCCCCCCCCCCC | 369 °C | 44.4 °C | log10 biodegradation half-life (days): 2.1; log10 vapour pressure (mmHg): -5.89; ready biodegradability: readily biodegradable |
| Nc1cccc(N)c1 | 285 °C | 63.5 °C | log10 vapour pressure (mmHg): -2.68; ready biodegradability: not readily biodegradable; log10 BCF: 0.81 |
| C[C@H]1CC[C@]2(NC1)O[C@H]1C[C@H]3[C@@H]4CC[C@H]5C[C@@H](O)CC[C@]5(C)[C@H]4CC[C@]3(C)[C@H]1[C@@H]2C | – | 210 °C | – |
| C#CC(C)C | 26.3 °C | -89.7 °C | – |
| Clc1ccccc1-c1ccccc1Cl | – | 61.5 °C | log10 Henry constant (atm·m³/mol): -3.64; log10 Koa: 7.18; log10 Koc (L/kg): 3.92; log10 vapour pressure (mmHg): -2.56; ready biodegradability: not readily biodegradable |
| CCCOC(=O)CCC | 143 °C | -95.2 °C | log10 vapour pressure (mmHg): 0.775 |
| CNc1nc(NC(C)C)nc(SC)n1 | 345 °C | 85 °C | log10 vapour pressure (mmHg): -6 |
| CCCCCCCCCCCCCCCC(=O)N(CCO)CCO | – | – | ready biodegradability: readily biodegradable |
| C#CCCOC1CCCCO1 (stereo not drawn) | – | – | ready biodegradability: readily biodegradable |
| CC1=CC(=O)CC(C)(C)[C@@]1(O)/C=C/C(C)=C\C(=O)O | – | 160 °C | – |
| CCOC(=O)C1(C)OC(=O)N(c2cc(Cl)cc(Cl)c2)C1=O (stereo not drawn) | – | 113 °C | log10 vapour pressure (mmHg): -7.02 |
| CCCCCCCCCCCCCC[N+](C)(C)C.[Br-] | – | 248 °C | – |
| COc1cc(O)c(C(C)=O)c(OC)c1 | – | 82 °C | – |
